Assay results as given in patent US12441718B2, “Selective angiotensin II compounds” (VICORE PHARMA AB, priority 2021, dated 2025).
Where “and” joins values, the source holds several entries; their conditions need not be identical. Identical values can stand only once. Like-named read-outs stand apart in the source and are kept apart here.

What was measured:
[1] = Metabolic stability in pooled human liver microsomes; assay type: in vitro ADME; settings: pooled human liver microsomes 0.5 mg/mL, 1 μM test compound, 37° C., * rows = mean of two runs; for half-life at 1 μM: human, pooled human liver microsomes
Procedure, shortened: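 Pooled human liver microsomes (0.5 mg/mL in PBS) preincubated ±1 mM NADPH at 37° C; test compound added at 10 min to 1 μM final. Samples at 0, 5, 15 and 60 min quenched in acetonitrile, parent quantified by LC-MS/MS against a standard curve (terfenadine internal standard). Initial metabolic rate calculated with and without NADPH.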

[2] = target: T1, human recombinant AT2 receptor (Homo sapiens, UniProt P50052); assay: Binding to AT2 receptor, radiometric scintillation assay (Eurofins ITEM26); settings: for Ki: seven-point dose-response curve
T1 construct: purchased Eurofins ITEM26 (protocol number)
T1 sequence (P50052 1-363): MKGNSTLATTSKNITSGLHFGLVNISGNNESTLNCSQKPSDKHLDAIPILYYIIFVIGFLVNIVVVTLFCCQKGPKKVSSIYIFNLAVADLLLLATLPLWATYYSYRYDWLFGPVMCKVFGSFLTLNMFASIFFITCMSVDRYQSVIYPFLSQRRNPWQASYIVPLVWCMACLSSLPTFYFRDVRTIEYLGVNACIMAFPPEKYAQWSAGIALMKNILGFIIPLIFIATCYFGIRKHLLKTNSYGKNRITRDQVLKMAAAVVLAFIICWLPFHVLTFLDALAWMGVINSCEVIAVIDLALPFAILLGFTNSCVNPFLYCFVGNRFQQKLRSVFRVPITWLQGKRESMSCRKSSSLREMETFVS

CYP1A2 = target: T2, CYP1A2 (Homo sapiens, UniProt P05177); assay: in vitro; assay type: in vitro ADME; settings: human, microsomes, human liver microsomes, substrate phenacetin, read-out: CYP1A2 Inh %
T2 construct: isoform-specific substrates incubated with human liver microsomes; tissue Eurofins ITEMG232 (protocol number); host or cells: human liver microsomes
Procedure: The following substrates were used; CYP1A phenacetin, CYP2B36 bupropion, CYP2C8 paclitaxel and amodiaquine, CYP2C9 diclofenac, CYP2C19 omeprazole, CYP2D6 dextromethorphan, CYP3A midazolam and testosterone.
At the end of the incubation, the formation of metabolite was monitored by HPLC-MS/MS as the peak area response.

CYP2B6 = target: T3, CYP2B6 (Homo sapiens, UniProt P20813); assay: CYP inhibition in human liver microsomes (Eurofins ITEMG232); assay type: in vitro ADME; settings: probe bupropion, substrate bupropion, read-out: CYP2B6 Inh %
T3 construct: isoform-specific substrates incubated with human liver microsomes; tissue Eurofins ITEMG232 (protocol number); host or cells: human liver microsomes
T3 sequence (P20813 1-491): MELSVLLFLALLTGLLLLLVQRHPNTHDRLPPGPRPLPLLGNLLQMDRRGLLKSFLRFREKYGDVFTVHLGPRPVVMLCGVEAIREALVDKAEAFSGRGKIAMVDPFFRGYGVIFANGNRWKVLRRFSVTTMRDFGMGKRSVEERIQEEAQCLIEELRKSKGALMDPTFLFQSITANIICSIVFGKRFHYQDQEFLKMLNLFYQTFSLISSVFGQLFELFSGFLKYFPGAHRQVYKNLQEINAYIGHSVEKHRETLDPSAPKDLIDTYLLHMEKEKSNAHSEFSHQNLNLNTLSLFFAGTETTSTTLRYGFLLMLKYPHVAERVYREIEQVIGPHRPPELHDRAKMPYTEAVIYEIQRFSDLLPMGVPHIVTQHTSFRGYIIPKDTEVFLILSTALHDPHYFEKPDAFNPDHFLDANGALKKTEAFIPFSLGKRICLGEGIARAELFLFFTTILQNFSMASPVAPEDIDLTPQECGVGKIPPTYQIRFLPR

CYP2C19 = target: T4, CYP2C19 (Homo sapiens, UniProt P33261); assay: as above; assay type: in vitro ADME; settings: human, probe omeprazole, substrate omeprazole, read-out: CYP2C19 Inh %
T4 construct: isoform-specific substrates incubated with human liver microsomes; tissue Eurofins ITEMG232 (protocol number); host or cells: human liver microsomes

CYP2C8 = target: T5, CYP2C8 (Homo sapiens, UniProt P10632); assay: as above; assay type: in vitro ADME; settings: human, probe paclitaxel and amodiaquine, substrate paclitaxel and amodiaquine, read-out: CYP2C8 Inh %
T5 construct: isoform-specific substrates incubated with human liver microsomes; tissue Eurofins ITEMG232 (protocol number); host or cells: human liver microsomes
T5 sequence (P10632 1-490): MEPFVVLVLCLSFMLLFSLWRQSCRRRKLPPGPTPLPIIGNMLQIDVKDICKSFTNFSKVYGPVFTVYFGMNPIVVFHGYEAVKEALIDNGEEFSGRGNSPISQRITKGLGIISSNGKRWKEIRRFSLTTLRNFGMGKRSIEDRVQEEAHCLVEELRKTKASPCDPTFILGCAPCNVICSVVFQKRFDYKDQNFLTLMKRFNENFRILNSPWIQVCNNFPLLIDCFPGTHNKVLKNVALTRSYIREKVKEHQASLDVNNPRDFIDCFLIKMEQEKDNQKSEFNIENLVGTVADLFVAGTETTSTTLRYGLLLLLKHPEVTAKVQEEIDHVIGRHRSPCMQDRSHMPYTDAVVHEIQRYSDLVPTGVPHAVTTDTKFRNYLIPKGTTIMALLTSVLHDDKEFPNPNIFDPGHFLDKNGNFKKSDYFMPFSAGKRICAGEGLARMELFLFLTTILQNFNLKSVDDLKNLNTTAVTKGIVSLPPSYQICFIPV

CYP2D6 = target: T6, CYP2D6 (Homo sapiens, UniProt P10635); assay: as above; assay type: in vitro ADME; settings: probe dextromethorphan, substrate dextromethorphan, read-out: CYP2D6 Inh %
T6 construct: isoform-specific substrates incubated with human liver microsomes; tissue Eurofins ITEMG232 (protocol number); host or cells: human liver microsomes

CYP3A4&5 = assay: in vitro; settings: human, human liver microsomes, probe testosterone;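 further: Read-out is the metabolite generated from the probe substrate, quantified as HPLC-MS/MS peak area once incubation ends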
CYP2C9 = CYP2C9 (Homo sapiens, UniProt P11712); assay: CYP inhibition in human liver microsomes (Eurofins ITEMG232); assay type: in vitro ADME; parameters: isoform-specific substrates incubated with human liver microsomes; tissue Eurofins ITEMG232 (protocol number); host or cells: human liver microsomes; settings: human, probe diclofenac, substrate diclofenac, read-out: CYP2C9 Inh %
CYP3A4 = CYP3A4 (Homo sapiens, UniProt P08684); assay: CYP inhibition in human liver microsomes (Eurofins ITEMG232), midazolam substrate; assay type: in vitro ADME; parameters: isoform-specific substrates incubated with human liver microsomes; tissue Eurofins ITEMG232 (protocol number); host or cells: human liver microsomes; settings: human, probe midazolam, read-out: CYP3A4 midazolam Inh %
[3] = target: T7, human recombinant AT1 receptor (Homo sapiens, UniProt P30556); assay: Binding to AT1 receptor, radiometric scintillation assay (Eurofins ITEM24); settings: test compounds at 1 and 10 μM, ligand 125I(sar1,Ile8)-AT-II; * rows = mean of runs
T7 construct: purchased Eurofins ITEM24 (protocol number)
T7 sequence (P30556 1-359): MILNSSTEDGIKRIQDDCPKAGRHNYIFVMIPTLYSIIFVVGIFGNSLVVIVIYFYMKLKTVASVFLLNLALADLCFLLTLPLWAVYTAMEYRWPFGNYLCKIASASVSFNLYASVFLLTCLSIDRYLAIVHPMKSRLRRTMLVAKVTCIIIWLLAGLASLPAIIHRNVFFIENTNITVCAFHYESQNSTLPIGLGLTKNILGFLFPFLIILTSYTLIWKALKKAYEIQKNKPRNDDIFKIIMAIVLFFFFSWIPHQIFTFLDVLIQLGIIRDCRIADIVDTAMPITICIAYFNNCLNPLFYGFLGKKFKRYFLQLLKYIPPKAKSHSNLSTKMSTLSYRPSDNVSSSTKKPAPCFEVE

[4] = with 1 mM NADPH, read-out: T1/2, + NaDPH
[5] = without NADPH, read-out: T1/2, no NaDPH
[6] = ligand 125I CGP 42112A, * rows = mean of runs
[7] = test compounds at 1, 10, 100 and 1000 nM, ligand 125I CGP 42112A, * rows = mean of runs, read-out: AT2 GraFit IC50

Sequence of CYP2C9 (P11712 whole entry, canonical isoform): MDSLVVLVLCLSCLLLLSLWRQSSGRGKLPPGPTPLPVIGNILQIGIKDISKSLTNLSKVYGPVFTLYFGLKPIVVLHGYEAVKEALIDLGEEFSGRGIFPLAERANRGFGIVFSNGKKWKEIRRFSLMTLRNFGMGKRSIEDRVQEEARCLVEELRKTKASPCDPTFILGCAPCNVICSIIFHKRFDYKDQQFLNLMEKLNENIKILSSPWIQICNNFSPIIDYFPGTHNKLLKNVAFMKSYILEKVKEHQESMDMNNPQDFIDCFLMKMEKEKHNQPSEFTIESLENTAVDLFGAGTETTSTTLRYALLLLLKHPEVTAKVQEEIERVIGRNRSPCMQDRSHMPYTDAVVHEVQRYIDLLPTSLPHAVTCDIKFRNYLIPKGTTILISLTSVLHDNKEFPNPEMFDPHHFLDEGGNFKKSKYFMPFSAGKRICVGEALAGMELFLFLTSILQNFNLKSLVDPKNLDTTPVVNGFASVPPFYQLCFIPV
T2 sequence (P05177 whole entry, canonical isoform): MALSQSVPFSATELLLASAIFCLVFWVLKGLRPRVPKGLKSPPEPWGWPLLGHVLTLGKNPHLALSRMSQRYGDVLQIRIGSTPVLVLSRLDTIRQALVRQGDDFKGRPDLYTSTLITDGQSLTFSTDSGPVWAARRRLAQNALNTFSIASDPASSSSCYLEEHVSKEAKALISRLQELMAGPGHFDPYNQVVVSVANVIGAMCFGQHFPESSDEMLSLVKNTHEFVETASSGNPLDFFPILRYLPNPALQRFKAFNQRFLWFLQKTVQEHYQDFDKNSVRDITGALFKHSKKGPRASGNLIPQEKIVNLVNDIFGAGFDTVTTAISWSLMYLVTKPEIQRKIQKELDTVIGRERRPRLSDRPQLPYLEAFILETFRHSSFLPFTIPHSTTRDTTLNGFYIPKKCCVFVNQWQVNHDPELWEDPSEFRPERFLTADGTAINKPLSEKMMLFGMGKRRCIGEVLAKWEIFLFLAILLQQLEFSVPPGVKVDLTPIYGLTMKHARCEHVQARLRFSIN
Sequence of CYP3A4 (P08684 whole entry, canonical isoform): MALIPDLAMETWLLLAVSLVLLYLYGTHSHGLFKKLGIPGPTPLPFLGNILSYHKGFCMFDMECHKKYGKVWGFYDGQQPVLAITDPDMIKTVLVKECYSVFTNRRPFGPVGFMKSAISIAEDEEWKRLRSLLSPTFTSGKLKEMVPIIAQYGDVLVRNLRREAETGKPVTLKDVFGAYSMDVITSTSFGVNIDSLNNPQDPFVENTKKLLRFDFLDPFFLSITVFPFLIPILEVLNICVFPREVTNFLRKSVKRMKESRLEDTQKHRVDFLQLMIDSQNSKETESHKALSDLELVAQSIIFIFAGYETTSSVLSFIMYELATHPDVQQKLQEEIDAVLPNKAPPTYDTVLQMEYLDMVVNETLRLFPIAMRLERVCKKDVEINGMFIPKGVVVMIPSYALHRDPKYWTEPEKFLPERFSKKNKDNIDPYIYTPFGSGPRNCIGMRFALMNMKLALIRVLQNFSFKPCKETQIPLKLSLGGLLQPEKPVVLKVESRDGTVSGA
T6 sequence (P10635 whole entry, canonical isoform): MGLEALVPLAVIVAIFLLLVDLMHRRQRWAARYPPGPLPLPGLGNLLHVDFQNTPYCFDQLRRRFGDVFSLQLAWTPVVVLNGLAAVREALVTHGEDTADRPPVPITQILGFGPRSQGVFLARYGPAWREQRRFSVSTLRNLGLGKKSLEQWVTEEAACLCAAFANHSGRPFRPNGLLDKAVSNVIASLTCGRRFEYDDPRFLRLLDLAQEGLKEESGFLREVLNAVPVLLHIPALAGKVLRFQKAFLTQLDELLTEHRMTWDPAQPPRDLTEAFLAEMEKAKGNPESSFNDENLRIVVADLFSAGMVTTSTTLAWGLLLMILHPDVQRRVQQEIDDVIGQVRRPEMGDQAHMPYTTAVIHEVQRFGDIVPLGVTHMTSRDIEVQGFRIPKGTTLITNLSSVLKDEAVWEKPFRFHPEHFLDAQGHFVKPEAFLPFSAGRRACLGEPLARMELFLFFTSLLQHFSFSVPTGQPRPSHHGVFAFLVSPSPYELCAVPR
T4 sequence (P33261 whole entry, canonical isoform): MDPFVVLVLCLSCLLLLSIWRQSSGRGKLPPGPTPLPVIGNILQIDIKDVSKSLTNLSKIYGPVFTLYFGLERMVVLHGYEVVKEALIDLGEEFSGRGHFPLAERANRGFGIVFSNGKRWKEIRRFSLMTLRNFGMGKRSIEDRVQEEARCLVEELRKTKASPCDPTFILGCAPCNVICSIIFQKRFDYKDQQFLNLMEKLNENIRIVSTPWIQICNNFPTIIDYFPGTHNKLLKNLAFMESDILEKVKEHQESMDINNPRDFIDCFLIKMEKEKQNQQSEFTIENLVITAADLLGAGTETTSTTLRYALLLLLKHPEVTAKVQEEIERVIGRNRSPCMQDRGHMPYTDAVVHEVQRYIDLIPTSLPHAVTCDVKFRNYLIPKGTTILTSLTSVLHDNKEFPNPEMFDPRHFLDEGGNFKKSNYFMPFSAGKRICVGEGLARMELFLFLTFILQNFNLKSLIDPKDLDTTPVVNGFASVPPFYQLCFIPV

Row | SMILES | half-life at 1 μM [1, 4] [h] | half-life at 1 μM [1, 5] [h] | Ki [2, 6] [nM] | IC50 [2, 7] [nM] | inhibition at 10 µM (CYP1A2) [%] | inhibition at 10 µM (CYP2B6) [%] | inhibition at 10 µM (CYP2C19) [%] | inhibition at 10 µM (CYP2C8) [%] | inhibition at 10 µM (CYP2D6) [%] | inhibition at 10 µM (CYP3A4&5) [%] | inhibition at 10 µM (CYP2C9) [%] | inhibition at 10 µM (CYP3A4) [%] | T1/2, + NaDPH ([1]; with 1 mM NADPH) [h] | T1/2, + NaDPH ([1]; with 1 mM NADPH, listed as Example 32*) [h] | IC50 [3] | IC50 ([2]; AT2 GraFit IC50, value in parentheses after <0.3, value printed in parentheses behind the bound <0.3) [nM]
1 | CC(C)Cc1ccc(S(=O)(=O)Nc2ncccn2)c(-c2ccc(Cn3ccnc3C(C)C)c(F)c2)c1 [Example 27, 3′-Fluoro-5-isobutyl-4′-((2-isopropyl-1H-imidazol-1-yl)methyl)-N-(pyrimidin-2-yl)-[1,1′-biphenyl]-2-sulfonamide] | > 1 | > 1 | 0.31 | 0.61 | 17.4 | 15.7 | 22.2 | 21.3 | 13.8 | 25.9 | 31.6 | 28.3 | – | – | – | –
2 | Cc1nccn1Cc1ccc(-c2cc(CC(C)C)ccc2S(=O)(=O)Nc2ncccn2)cc1F [Example 28, 3′-Fluoro-5-isobutyl-4′-((2-methyl-1H-imidazol-1-yl)methyl)-N-(pyrimidin-2-yl)-[1,1′-biphenyl]-2-sulfonamide] | > 1 | > 1 | 0.4 | 0.8 | 22.2 | 40.8 | 65 | 41.6 | 14.2 | 37.4 | 31.1 | 34.8 | – | – | – | –
3 | CCc1nccn1Cc1ccc(-c2cc(CC(C)C)ccc2S(=O)(=O)Nc2ncccn2)cc1F [Example 29, 4′-((2-Ethyl-1H-imidazol-1-yl)methyl)-3′-fluoro-5-isobutyl-N-(pyrimidin-2-yl)-[1,1′-biphenyl]-2-sulfonamide] | > 1 | > 1 | 0.45 | 0.9 | 13.6 | 25 | 43.6 | 58.2 | 7.4 | 21.8 | 43 | 15.4 | – | – | – | –
4 | CC(C)Cc1ccc(S(=O)(=O)Nc2ccsn2)c(-c2ccc(Cn3ccnc3C(C)(C)C)c(F)c2)c1 [Example 32, 4′-((2-(tert-Butyl)-1H-imidazol-1-yl)methyl)-3′-fluoro-5-isobutyl-N-(isothiazol-3-yl)-[1,1′-biphenyl]-2-sulfonamide] | 0.233 | > 1 | 0.92 | 1.84 | – | – | – | – | – | – | – | – | 0.217 | 0.225 | 14100 nM and 8500 nM and 11300 nM | –
5 | COc1cc(NS(=O)(=O)c2ccc(CC(C)C)cc2-c2ccc(Cn3ccnc3C(C)(C)C)c(F)c2)nc(OC)n1 [Example 35, 4′-((2-(tert-Butyl)-1H-imidazol-1-yl)methyl)-N-(2,6-dimethoxypyrimidin-4-yl)-3′-fluoro-5-isobutyl-[1,1′-biphenyl]-2-sulfonamide] | 0.133 | > 1 | 59.7 | 119 | – | – | – | – | – | – | – | – | – | – | 30800 nM | –
6 | CC(C)Cc1cc(-c2ccc(Cn3ccnc3C3CC3)c(F)c2)c(S(=O)(=O)Nc2ncccn2)s1 [Example 47, 3-(4-((2-Cyclopropyl-1H-imidazol-1-yl)methyl)-3-fluorophenyl)-5-isobutyl-N-(pyrimidin-2-yl)thiophene-2-sulfonamide] | > 1 | > 1 | – | < 0.3 | – | – | – | – | – | – | – | – | – | – | 4900 nM | 0.25
7 | CC(C)Cc1cc(-c2ccc(Cn3ccnc3C(C)C)cc2)c(S(=O)(=O)Nc2ncccn2)s1 [Example 49, 5-Isobutyl-3-(4-((2-isopropyl-1H-imidazol-1-yl)methyl)phenyl)-N-(pyrimidin-2-yl)thiophene-2-sulfonamide] | > 1 | > 1 | 0.68 | 1.36 | – | – | – | – | – | – | – | – | – | – | 6700 nM | –
8 | Cc1nccn1Cc1ccc(-c2cc(CC(C)C)sc2S(=O)(=O)Nc2ncccn2)cc1 [Example 50, 5-Isobutyl-3-(4-((2-methyl-1H-imidazol-1-yl)methyl)phenyl)-N-(pyrimidin-2-yl)thiophene-2-sulfonamide] | > 1 | > 1 | 0.72 | 1.44 | – | – | – | – | – | – | – | – | – | – | 35100 nM | –
9 | CCc1nccn1Cc1ccc(-c2cc(CC(C)C)sc2S(=O)(=O)Nc2ncccn2)cc1 [Example 51, 3-(4-((2-Ethyl-1H-imidazol-1-yl)methyl)phenyl)-5-isobutyl-N-(pyrimidin-2-yl)thiophene-2-sulfonamide] | > 1 | > 1 | 0.64 | 1.28 | – | – | – | – | – | – | – | – | – | – | 13900 nM | –
